In paper PMC8395040 (International Journal of Molecular Sciences, 2021):

Test system: HT29
Assay: Colony formation assay, HT29
Type: cell-based, human
Conditions: 5 µM, 14 d
Protocol: HT29, HCT116, H1975 and HEK293 cells were seeded in a 6-well plate (1 × 10^4 cells per well) and incubated overnight in DMEM F12 supplemented with 10% FBS. […] After 72 h, the medium was replaced by fresh medium without stimuli, and cells were incubated for an additional 14 d to permit colony formation. The cells were fixed during 30 min with PFA 4% (v/v), washed and stained for 30 min at RT with a 5% solution of violet crystal for final colony counting. Three independent replicates were performed.

CS(=O)(=O)c1ccc(C(=O)Nc2ccc(Cl)c(-c3ccccn3)c2)c(Cl)c1 [Vismodegib, reference compound]
colony formation HT-29: less effective than 4s
